Measured values from the Kinase Knowledgebase extract (Sharma et al. 2016).

Biological target: MAPK14;MAPK11;MAPK12 (human) (UniProt Q16539)
Assay: Inhibition of p38 Kinase Activity

SMILES | IC50
CNCCN(C)c1nc(NC[C@@H]2CC[C@H]3C[C@@H]2C3(C)C)nc(Nc2ccc3ncsc3c2)n1 | < 10 µM
Cc1ccc(C(N)=O)cc1Nc1nc(N[C@H]2CCN(Cc3ccc(O)cc3)C2)nc(N(C)CC(C)(C)C)n1 | < 1 µM
Cc1ccc(C(N)=O)cc1Nc1nc(N[C@H]2CCN(C(C)c3ccncc3)C2)nc(N(C)CC(C)C)n1 (stereo partly specified) | < 1 µM
Cc1ccc(C(N)=O)cc1Nc1nc(N[C@H]2CCNC2)nc(N(C)CC(C)(C)C)n1 | < 1 µM
CC(C)c1nc(Cl)nc(Nc2ccc3ncsc3c2)n1 | < 10 µM
CC(CNc1nc(Cl)nc(Nc2ccc3ncsc3c2)n1)c1ccc(Cl)cc1 (stereo unspecified) | < 10 µM
Cc1ccc(C(N)=O)cc1Nc1nc(NCC2CCC3CC2C3(C)C)nc(NC2CCNC2)n1 (stereo unspecified) | < 1 µM
Cc1ccc(C(N)=O)cc1Nc1nc(NC2Cc3ccccc3C2)nc(N[C@@H]2CCNC2)n1 | < 1 µM
CC1(C)C2CCC(CNc3nc(Nc4ccc5scnc5c4)nc(N4CCNCC4)n3)C1C2 (stereo unspecified) | < 10 µM
Cc1ccc2c(c1)ncn2-c1nc(NCCOC(C)C)cc(N(C)C)n1 | < 10 µM
C=CCN1CC[C@H](Nc2nc(Nc3cc(C(=O)NCC)ccc3C)nc(N(C)CC3CCCC3)n2)C1 | < 1 µM
CC(Cc1ccccc1)Nc1nc(Nc2ccc3ncsc3c2)nc(N2CCNCC2)n1 (stereo unspecified) | < 10 µM
CNC(=O)c1ccc(C)c(Oc2nc(N(C)CC(C)(C)C)nc(N3CCCN(C)CC3)n2)c1 | < 30 µM
CNCCN(C)c1nc(NCc2ccc3c(c2)OCO3)nc(NCC(C)c2ccccc2)n1 (stereo unspecified) | < 10 µM
CNC(=O)c1ccc(C)c(Nc2nc(N[C@H]3CCNC3)nc(N(C)CC(C)(C)C)n2)c1 | < 1 µM
COc1ccc(NC(=O)c2ccc(C)c(Nc3nc(N[C@H]4CCNC4)nc(N(C)CC(C)(C)C)n3)c2)cc1 | < 1 µM
CONC(=O)c1ccc(C)c(Nc2nc(NCc3ccccc3)nc(N(C)CC(C)(C)C)n2)c1 | < 1 µM
Cc1ccc(C(N)=O)cc1Nc1nc(NC2CCN(Cc3ccc(C(C)C)cc3)C2)nc(N(C)CC(C)C)n1 (stereo unspecified) | < 1 µM
Cc1ccc(C(N)=O)cc1Nc1nc(CCC(C)C)nc(N[C@H]2CCNC2)n1 | < 1 µM
Cc1ccc(C(N)=O)cc1Nc1nc(N[C@@H]2CCNC2)nc(N(C)C2CCCC2)n1 | < 1 µM
Cc1ccc(C(N)=O)cc1Nc1nc(N[C@H]2CCN(C(C)c3cccnc3)C2)nc(N(C)CC(C)C)n1 (stereo partly specified) | < 1 µM
Cc1ccc(C(N)=O)cc1Nc1nc(NC2CCN(C)C2)nc(N(C)CC(C)C)n1 (stereo unspecified) | < 1 µM
Cc1ccc(C(N)=O)cc1Nc1nc(N[C@H]2CCN(C(C)(C)C)C2)nc(N(C)CC(C)(C)C)n1 | < 1 µM

SMILES | IC50
Cc1ccc(-c2nnc[nH]2)cc1Nc1nc(N[C@@H]2CCNC2)nc(N(C)CC(C)(C)C)n1 | < 1 µM
Cc1ccc(C(N)=O)cc1Nc1nc(O)nc(NC2CCCC2)n1 | < 1 µM
CCCNC(=O)N1CC[C@@H](Nc2nc(Nc3cc(C(=O)NOC)ccc3C)nc(N(C)CC(C)(C)C)n2)C1 | < 1 µM
COc1ccc(C(=O)N2CCN(c3nc(NCC(C)c4ccccc4)nc(Nc4ccc5ncsc5c4)n3)CC2)cc1 (stereo unspecified) | < 10 µM
CONC(=O)c1ccc(C)c(Oc2nc(N(C)CC(C)(C)C)nc(N3CCCN(C)CC3)n2)c1 | < 30 µM
Cc1ccc(C(N)=O)cc1Nc1nc(N[C@H]2CCCC[C@H]2N)nc(N(C)CC(C)C)n1 | < 1 µM
Cc1ccc(C(N)=O)cc1Nc1nc(N[C@H]2CCNC2)nc(N(C)CC(C)c2ccc(Cl)cc2)n1 (stereo partly specified) | < 1 µM
CCONC(=O)c1ccc(C)c(Nc2nc(N)nc(N(C)CC(C)(C)C)n2)c1 | < 1 µM
Cc1ccc(Nc2nc(NC[C@@H]3CC[C@H]4C[C@@H]3C4(C)C)nc(N3CCCNCC3)n2)cc1C(N)=O | < 10 µM
CC(CNc1nc(Nc2ccc3ncsc3c2)nc(N2CC3CC2CN3C(=O)C2CCOC2)n1)c1ccccc1 (stereo unspecified) | < 10 µM
Cc1ccc(C(N)=O)cc1Nc1nc(NCCC(C)(C)C)nc(N[C@@H]2CCNC2)n1 | < 1 µM
CCC(C)N1CC[C@@H](Nc2nc(Nc3cc(C(N)=O)ccc3C)nc(N(C)CC(C)(C)C)n2)C1 (stereo partly specified) | < 1 µM
CNCCN(C)c1nc(NCC(C)c2ccccc2)nc(Oc2ccc3ncsc3c2)n1 (stereo unspecified) | < 10 µM
CCCC1(C)CCN(c2nc(Nc3cc(C(=O)NC)ccc3C)nc(N[C@@H]3CCNC3)n2)C1 (stereo partly specified) | < 1 µM
CC(=O)N1CCN(c2nc(Nc3ccc4ncsc4c3)nc(N(C)CC3CCC4CC3C4(C)C)n2)CC1 (stereo unspecified) | < 10 µM
CC1(C)[C@H]2CC[C@H](CNc3nc(Cl)nc(Nc4ccc5ncsc5c4)n3)[C@@H]1C2 | < 10 µM
c1nc2ccc(Nc3nc(NCC4CCCO4)nc(NC4CC4)n3)cc2s1 (stereo unspecified) | < 10 µM
CONC(=O)c1ccc(C)c(Nc2nc(NCCNC(C)=O)nc(N(C)CC(C)(C)C)n2)c1 | < 1 µM
CONC(=O)c1ccc(C)c(Nc2nc(NCCN3CCCC3)nc(N(C)CC(C)(C)C)n2)c1 | < 1 µM
Cc1ccc(CC2CC(Nc3nc(Nc4cc(C(N)=O)ccc4C)nc(N(C)CC(C)(C)C)n3)CN2)cc1 (stereo unspecified) | < 1 µM
CC(CNc1nc(Cl)nc(Nc2ccc3ncsc3c2)n1)c1ccccc1 (stereo unspecified) | < 10 µM
Cc1ccc(C(=O)NCC(F)(F)F)cc1Nc1nc(N[C@H]2CCNC2)nc(N(C)CC(C)C)n1 | < 1 µM
Cc1cc2c(cc1Cl)C(=O)N2c1nc(N[C@H]2CCNC2)nc(N(C)CC(C)(C)C)n1 | < 1 µM
